Laboratory results from US4490370A, “Naphthylglycyl cephalosporin derivatives” (priority 1983, dated 1984).
≈ marks a conversion by molar mass, not a printed value. Structures can show the parent of a compound that is named as a salt. Where two headings read alike, the source gives them in different places.

Columns and labels:
Format in all cases: cell-based
[1] = system: Strep. PN; test: Agar dilution MIC, Strep. PN; conditions: Table I, strain PARK; read-out: MIC
Text: (§1) The following Tables present typical minimum inhibitory concentrations (MIC's) in μg/ml for the compounds when evaluated against the indicated microorganisms.

[2] = system: H. influ.; test: Agar dilution MIC, H. influenza; conditions: read-out: MIC
Text: as §1

[3] = system: Klebsiella; test: Agar dilution MIC, Klebsiella; conditions: Klebsiella; Table I, strain X26; read-out: MIC
Text: (§2) A typical and preferred compound provided by this invention is 7-(2-naphthylglycylamido)-3-methyl-3-cephem-4-carboxylic acid, the compound of Example 3. The antibacterial activity of this compound and several others of the invention has been determined in standard in vitro agar dilution assays against a variety of gram positive microorganisms. The following Tables present typical minimum inhibitory concentrations (MIC's) in μg/ml for the compounds when evaluated against the indicated microorganisms. MIC's for several known compounds are also presented for comparison.

[4] = system: Strep. A; test: Agar dilution MIC, Strep. A; conditions: Table I, strain C203; read-out: MIC
Text: as §2

[5] = system: Staph. aureus; test: Agar dilution MIC, Staph. aureus; conditions: Staphylococcus aureus
Text: as §1

[6] = system: Staph. epi; test: Agar dilution MIC, Staph. epi; conditions: read-out: MIC
Text: as §1

[7] = Table I, strain V41, read-out: MIC
[8] = Table I, strain X1.1, read-out: MIC
[9] = Table I, strain X400, read-out: MIC
[10] = Table II, strain S224, read-out: MIC
[11] = Table II, strain S225, read-out: MIC
[12] = Table II, strain S226, read-out: MIC
[13] = Table II, strain S227, read-out: MIC
[14] = Table II, strain S228, read-out: MIC
[15] = Table II, strain S229, read-out: MIC
[16] = Table II, strain S230, read-out: MIC
[17] = Table II, strain S231, read-out: MIC
[18] = Table II, strain S234, read-out: MIC
[19] = Table II, strain S237, read-out: MIC
[20] = Table II, strain S238, read-out: MIC
[21] = Table II, strain S239, read-out: MIC
[22] = Table II expanded spectrum, strain EPI1

Compound | MIC [1] [µg/mL] | MIC ([2]; Table I, strain BRUN) [µg/mL] | MIC ([2]; Table II, strain 1930) [µg/mL] | MIC ([2]; Table II, strain C.L.) [µg/mL] | MIC ([2]; Table II, strain HESS) [µg/mL] | MIC ([2]; Table II, strain M366) [µg/mL] | MIC ([2]; Table II, strain R465) [µg/mL] | MIC ([2]; Table II, strain STEL) [µg/mL] | MIC [3] [µg/mL] | MIC [4] [µg/mL] | MIC [5, 7] [µg/mL] | MIC [5, 8] [µg/mL] | MIC [5, 9] [µg/mL] | MIC [5, 10] [µg/mL] | MIC [5, 11] [µg/mL] | MIC [5, 12] [µg/mL] | MIC [5, 13] [µg/mL] | MIC ([6]; Table I, strain 222) [µg/mL] | MIC ([6]; Table I, strain EPI1) [µg/mL] | MIC ([5]; Table I, strain S13E) [µg/mL] | other results
CC1=C(C(=O)O)N2C(=O)C(NC(=O)[C@H](N)c3ccc4cc(Cl)ccc4c3)C2SC1 (stereo partly drawn) [Example 7, D-7-(6-chloronaphth-2-ylglycylamido)-3-methyl-3-cephem-4-carboxylic acid] | 0.25 (≈ 0.579 µM) | 32 (≈ 74.1 µM) | 16 (≈ 37 µM) | 32 (≈ 74.1 µM) | 32 (≈ 74.1 µM) | > 64 | 32 (≈ 74.1 µM) | > 64 | 8 (≈ 18.5 µM) | 0.06 (≈ 0.139 µM) | 8 (≈ 18.5 µM) | 0.25 (≈ 0.579 µM) | 64 (≈ 148 µM) | 0.5 (≈ 1.16 µM) | 0.5 (≈ 1.16 µM) | 1 (≈ 2.32 µM) | 0.5 (≈ 1.16 µM) | 0.5 (≈ 1.16 µM) | 4 (≈ 9.26 µM) | – | MIC ([2]; Table II, strain 76): 16 µg/mL (≈ 37 µM); MIC [5, 14]: 0.5 µg/mL (≈ 1.16 µM); MIC [5, 15]: 1 µg/mL (≈ 2.32 µM); MIC [5, 16]: 0.5 µg/mL (≈ 1.16 µM); MIC [5, 17]: 0.25 µg/mL (≈ 0.579 µM); MIC [5, 18]: 1 µg/mL (≈ 2.32 µM); MIC [5, 19]: 0.5 µg/mL (≈ 1.16 µM); MIC [5, 20]: 1 µg/mL (≈ 2.32 µM); MIC [5, 21]: 1 µg/mL (≈ 2.32 µM); MIC [6, 22]: 8 µg/mL (≈ 18.5 µM); MIC ([6]; Table II, strain 269): 4 µg/mL (≈ 9.26 µM); MIC ([6]; Table II, strain 270): 4 µg/mL (≈ 9.26 µM); MIC ([6]; Table II, strain 285): 2 µg/mL (≈ 4.63 µM); MIC ([6]; Table II, strain 286): 1 µg/mL (≈ 2.32 µM)
COc1ccc2cc([C@@H](N)C(=O)NC3C(=O)N4C(C(=O)O)=C(C)CSC34)ccc2c1 (stereo partly drawn) [Example 10, D-7-(6-Methoxy-2-naphthyl)glycylamido-3-methyl-3-cephem-4-carboxylic acid] | 0.125 (≈ 0.292 µM) | 16 (≈ 37.4 µM) | 8 (≈ 18.7 µM) | 8 (≈ 18.7 µM) | 8 (≈ 18.7 µM) | 16 (≈ 37.4 µM) | 16 (≈ 37.4 µM) | 16 (≈ 37.4 µM) | 4 (≈ 9.36 µM) | 0.125 (≈ 0.292 µM) | 16 (≈ 37.4 µM) | 0.25 (≈ 0.585 µM) | 64 (≈ 150 µM) | 0.5 (≈ 1.17 µM) | 0.5 (≈ 1.17 µM) | 1 (≈ 2.34 µM) | 1 (≈ 2.34 µM) | 1 (≈ 2.34 µM) | 4 (≈ 9.36 µM) | 16 (≈ 37.4 µM) | MIC [5, 14]: 0.5 µg/mL (≈ 1.17 µM); MIC [5, 15]: 1 µg/mL (≈ 2.34 µM); MIC [5, 16]: 0.5 µg/mL (≈ 1.17 µM); MIC [5, 17]: 0.25 µg/mL (≈ 0.585 µM); MIC [5, 18]: 1 µg/mL (≈ 2.34 µM); MIC [5, 19]: 1 µg/mL (≈ 2.34 µM); MIC [5, 20]: 1 µg/mL (≈ 2.34 µM); MIC [5, 21]: 1 µg/mL (≈ 2.34 µM); MIC [6, 22]: 4 µg/mL (≈ 9.36 µM); MIC ([6]; Table II, strain 219): 5 µg/mL (≈ 11.7 µM); MIC ([6]; Table II, strain 269): 2 µg/mL (≈ 4.68 µM); MIC ([6]; Table II, strain 270): 4 µg/mL (≈ 9.36 µM); MIC ([6]; Table II, strain 285): 2 µg/mL (≈ 4.68 µM); MIC ([6]; Table II, strain 286): 0.5 µg/mL (≈ 1.17 µM)
COC1=C(C(=O)O)N2C(=O)C(NC(=O)C(N)c3ccc4ccccc4c3)C2SC1 (racemic) [Example 6, 7-(2-Naphthylglycylamido)-3-methoxy-3-cephem-4-carboxylic acid trifluoroacetate] | > 138 | – | – | – | – | – | – | – | 8 | 0.125 | 32 | 1 | – | – | – | – | – | 2 | 8 | 32 | MIC ([2]; Table I, strain 251): 32 µg/mL
N[C@@H](C(=O)NC1C(=O)N2C(C(=O)O)=CCSC12)c1ccc2ccccc2c1 (stereo partly drawn) [Example 12, D-7-(2-Naphthylglycylamido)-3-cephem-4-carboxylic acid trifluoroacetate] | 1 | 64 | – | – | – | – | – | – | 16 | 0.5 | 64 | – | – | – | – | – | – | 4 | 32 | 64 | MIC ([2]; Table I, strain 251): 16 µg/mL; MIC [5]: 4 µg/mL
